Data published in patent US20050256132A1, “Use of ER selective NF-kB inhibitors for the treatment of sepsis” (priority 2003, published 2005).
Where two headings read alike, the source gives them in different places.

Columns and labels:
[1] = system: CK; experiment: Creatine kinase assay in ERα infected HAECT-1 cells (Table 2); assay type: cell-based, human
Experimental: T-175 flasks of 100% confluent HAECT-1 cells (immortalized human aortic endothelial cells) were washed with 8 ml of HBSS (HEPES buffered saline solution) and infected for fours hours with 6 ml of a 1:10 dilution of Ad5-wt-hERα virus (an adenovirus transfection vector that mediates CMV promoter driven expression of human ERα) in phenol red free Endothelial Cell Basal medium (Clonetics, San Diego, Calif., Catalog # CC-3129) containing 0.25% bovine serum albumin (EDM-BSA). After four hours, cells were washed with EDM-BSA and incubated overnight in the same medium. Following overnight incubation, cells were washed with EDM-BSA and infected for 2 hours with 6 ml of a 1:10 dilution of Ad5-3x(NFκB).Luc virus (Adenovirus luciferase expression vector driven by three repeats of the MHC NFκb sites 5′ to the thymidine kinase promoter) in EDM-BSA. After two hours, cells were washed and incubated at 34° C. for one hour. Cells were then washed, trypsinized, counted, and resuspended in 95% FBS/5% dimethylsulfoxide at a concentration of […], frozen as 1 or 5 ml aliquots in cryo-vials and stored at −150° C. Control (no ER infection) cells were processed as above without Ad5-wt-hERα virus infection.
ERα infected HAECT-1 cells or control cells were thawed, diluted 42× in warm EBM-BSA, plated into 96-well plates at 0.1 ml/well and incubated for 4 hours at 34° C. Test compounds were added to the cells at 2× stocks in EBM-BSA containing 2 ng/ml IL-1β Ad6-IL-6(1250 bp).Luc virus and plates were returned to the incubator (34° C.). After […], cells were lysed with 50 μl of Promega Cell Culture Lysis reagenet for about 5 minutes at room temperature on a shaker. After lysing, 15 μl of lysate is transferred to luminometer plates for luciferase determination. Luciferase activity is evaluated using a Perkin Elmer Victor2 1420 multilabel counter. Creatine kinase was determined from the rate of increase in A340 following addition of 100 μl of CK assay reagent (Sigma catalog no. 47-10) to the remainder of the cell lysate.
For IC50 and EC50 calculations, mean IL-6, luciferase or CK values versus log10 of the compound concentration were fitted to a four parameter logistic equation. The IC50/EC50 value, ‘Hill slope,’ upper and lower limits of the curve were iteratively estimated.

[2] = system: ER/IL-6; experiment: Endothelial Cell ER/IL-6 Assay, IL-6 promoter luciferase (Table 2); assay type: cell-based, human; conditions: ERα infected HAECT-1 cells, IL-1β; for IC50: read-out: IL6 luc IC50; for Emax: read-out: IL6 luc % Efficacy
How it was run: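 HAECT-1 human aortic endothelial cells adenovirally expressing human ERα (or non-ER-infected controls) received compounds as 2× stocks with 2 ng/ml IL-1β and IL-6 promoter (1250 bp)-luciferase adenovirus for […] at 34 °C. ER/IL-6 was read as lysate luciferase and CK as the rate of A340 increase with CK reagent. IC50/EC50 came from four-parameter logistic fits.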

Structure (SMILES) | CK % Efficacy [1] | IL6 luc % Efficacy [2] | IC50 [2] | EC50 [1] | Emax ([2]; Homo sapiens, HAECT1) | IC50 ([2]; Homo sapiens, HAECT1) | melting point
COC[C@@](C#N)(C(=O)N1CCN(c2ncccn2)CC1)[C@@H](c1ccccc1OC)c1cccc2ccccc12 [Example 200, (RR,SS)-2-(methoxymethyl)-3-(2-methoxyphenyl)-3-(1-naphthyl)-2-[(4-pyrimidin-2-ylpiperazin-1-yl)carbonyl]propanenitrile] | 13% | 162% | 157 nM | – | – | – | –
COc1ccccc1C(c1cccc2ccccc12)C(C#N)(COCc1ccccc1)C(=O)N1CCN(C2CCCCC2)CC1 (stereo not drawn) [Example 217, (RR,SS)-2-[(benzyloxy)methyl]-3-(4-cyclohexylpiperazin-1-yl)-2-[(2-methoxyphenyl) (1-naphthyl)methyl]-3-oxopropanenitrile] | −37% | 12% | 203 nM | – | – | – | –
COCC(C#N)(C(=O)N1CCN(C2CCCCC2)CC1)C(c1ccccc1OC)c1cccc2ccccc12 (stereo not drawn) [Example 209, (RR,SS)-3-(4-cyclohexylpiperazin-1-yl)-2-(methoxymethyl)-2-[(2-methoxyphenyl)(1-naphthyl)methyl]-3-oxopropanenitrile] | 2% | 116% | 87 nM | – | – | – | –
COc1ccccc1[C@@H](c1cccc2ccccc12)[C@@](C#N)(COCc1ccccc1)C(=O)N1CCN(c2cnccn2)CC1 [Example 220, (RR,SS)-2-[(benzyloxy)methyl]-3-(2-methoxyphenyl)-3-(1-naphthyl)-2-[(4-pyrazin-2-ylpiperazin-1-yl)carbonyl]propanenitrile] | 6% | 128% | 344 nM | – | – | – | –
COCC(C#N)(C(=O)N1CC=C(c2c[nH]c3ccccc23)CC1)C(c1ccccc1OC)c1cccc2ccccc12 (stereo not drawn) [Example 213, (RR,SS)-3-[4-(1H-indol-3-yl)-3,6-dihydropyridin-1(2H)-yl]-2-(methoxymethyl)-2-[(2-methoxyphenyl)(1-naphthyl)methyl]-3-oxopropanenitrile] | 26% | 103% | 5.6 nM | 64 nM | – | – | –
COCC(C#N)(C(=O)N1CCN(c2cnccn2)CC1)C(c1ccccc1OC)c1cccc2ccccc12 (stereo not drawn) [Example 212, (RR,SS)-2-(methoxymethyl)-3-(2-methoxyphenyl)-3-(1-naphthyl)-2-[(4-pyrazin-2-ylpiperazin-1-yl)carbonyl]propanenitrile] | 22% | 113% | 59 nM | 138 nM | – | – | –
COc1ccccc1[C@@H](c1cccc2ccccc12)[C@@](C#N)(COCc1ccccc1)C(=O)N1CCN(c2ncccn2)CC1 [Example 218, (RR,SS)-2-[(benzyloxy)methyl]-3-(2-methoxyphenyl)-3-(1-naphthyl)-2-[(4-pyrimidin-2-ylpiperazin-1-yl)carbonyl]propanenitrile] | −12% | 101% | 103 nM | – | – | – | –
COCCOC[C@@](C#N)(C(=O)NC(C)(C)C)[C@@H](c1ccccc1OC)c1cccc2ccccc12 [Example 169, (RR,SS)-N-(tert-Butyl)-2-cyano-2-[(2-methoxyethoxy)methyl]-3-(2-methoxyphenyl)-3-(1-naphthyl)propanamide] | −8% | 97% | 331 nM | – | – | – | –
COc1ccccc1C(c1cccc2ccccc12)C(C#N)(COCc1ccccc1)C(=O)N1CCN(CCN2CCOCC2)CC1 (stereo not drawn) [Example 208, 2-[(benzyloxy)methyl]-3-(2-methoxyphenyl)-2-{[4-(2-morpholin-4-ylethyl)piperazin-1-yl]carbonyl}-3-(1-naphthyl)propanenitrile] | – | – | – | – | 50% | 13 nM | 162 °C
COc1ccccc1[C@H](c1cccc2ccccc12)[C@@](C)(C#N)C(=O)N1CCN(CC(=O)N2CCCC2)CC1 [Example 201, (2S,3S)-3-(2-methoxyphenyl)-2-methyl-3-(1-naphthyl)-2-{[4-(2-oxo-2-pyrrolidin-1-ylethyl)piperazin-1-yl]carbonyl}propanenitrile] | – | – | – | – | 45% | 1090 nM | 203 °C
COC(=O)[C@@](C#N)(Cc1cccnc1)[C@H](c1ccccc1OC)c1cccc2ccccc12 (relative stereo) [Example 145, Methyl (2S*,3S*)-2-cyano-3-(2-methoxyphenyl)-3-(1-naphthyl)-2-(pyridin-3-ylmethyl)propanoate] | – | – | – | – | 102% | – | 160 to 164.4 °C
COc1ccccc1[C@H](c1cccc2ccccc12)[C@@](C)(C#N)C(=O)N1CCC(N2C(=O)CCc3ccccc32)CC1 [Example 134, (2S,3S)-3-(2-methoxyphenyl)-2-methyl-3-(1-naphthyl)-2-{[4-(2-oxo-3,4-dihydroquinolin-1(2H)-yl)piperidin-1-yl]carbonyl}propanenitrile] | – | – | – | – | 85% | 612 nM | 265 to 267 °C
COc1ccccc1[C@@H](c1cccc2ccccc12)[C@](C#N)(COCc1ccccc1)C(=O)N1CCN(CCCN(C)C)CC1 (relative stereo) [Example 205, (2S*)-2-[(benzyloxy)methyl]-3-{4-[3-(dimethylamino)propyl]piperazin-1-yl}-2-[(R*)-(2-methoxyphenyl)(1-naphthyl)methyl]-3-oxopropanenitrile] | – | – | – | – | 58% | 334 nM | 192 to 193 °C
COC(=O)[C@@](C#N)(Cc1cccnc1)[C@H](c1ccccc1OC)c1cccc2ccccc12 [Example 156, Methyl (2S,3S)-2-cyano-3-(2-methoxyphenyl)-3-(1-naphthyl)-2-(pyridin-3-ylmethyl)propanoate] | – | – | – | – | 73% | – | 193 °C (dec.)
COCCN1CCN(C(=O)[C@](C)(C#N)[C@H](c2ccccc2OC)c2cccc3ccccc23)CC1 [Example 197, (2S)-3-[4-(2-methoxyethyl)piperazin-1-yl]-2-[(S)-(2-methoxyphenyl)(1-naphthyl)methyl]-2-methyl-3-oxopropanenitrile] | – | – | – | – | 46% | 39 nM | 144 °C
COc1ccccc1[C@H](c1cccc2ccccc12)[C@@](C)(C#N)C(=O)N1CCC(c2cccc(C(F)(F)F)c2)C(O)C1 (stereo partly drawn) [Example 185, (2S)-3-{3-hydroxy-4-[3-(trifluoromethyl)phenyl]piperidin-1-yl}-2-[(S)-(2-methoxyphenyl)(1-naphthyl)methyl]-2-methyl-3-oxopropanenitrile] | – | – | – | – | 116% | 288 nM | 259 °C
CCC(=O)C1(c2ccccc2)CCN(C(=O)[C@](C)(C#N)[C@H](c2ccccc2OC)c2cccc3ccccc23)CC1 [Example 194, (2S,3S)-3-(2-methoxyphenyl)-2-methyl-3-(1-naphthyl)-2-[(4-phenyl-4-propionylpiperidin-1-yl)carbonyl]propanenitrile] | – | – | – | – | 150% | 132 nM | 126 to 128 °C
COc1ccccc1[C@H](c1cccc2ccccc12)[C@](C#N)(COCc1ccccc1)C(=O)OC(C)(C)C (relative stereo) [Example 154, tert-Butyl (2S*,3S*)-2-[(benzyloxy)methyl]-2-cyano-3-(2-methoxyphenyl)-3-(1-naphthyl)propanoate] | – | – | – | – | 87% | 6 nM | 166 to 170 °C
COc1ccccc1[C@H](c1cccc2ccccc12)[C@@](C)(C#N)C(=O)N1CC=C(c2ccc(Br)cc2)CC1 [Example 135, (2S)-3-[4-(4-bromophenyl)-3,6-dihydropyridin-1(2H)-yl]-2-[(S)-(2-methoxyphenyl)(1-naphthyl)methyl]-2-methyl-3-oxopropanenitrile] | – | – | – | – | 119% | 65 nM | 136 to 139 °C
COCCN1CCN(C(=O)C(C#N)(COC)C(c2ccccc2OC)c2cccc3ccccc23)CC1 (stereo not drawn) [Example 206, 3-[4-(2-methoxyethyl)piperazin-1-yl]-2-(methoxymethyl)-2-[(2-methoxyphenyl)(1-naphthyl)methyl]-3-oxopropanenitrile] | – | – | – | – | 83% | 345 nM | 156 to 158 °C
